Measured values from PubChem BioAssay AID248 (DTP/NCI, 2004).
Several values for one entry are separate records, joined by “and”; a condition that tells them apart may be missing. Equal values may be shown once. Toxic doses and inconclusive results are not listed. Cut-off read from the data, not from the text of the source: active = T/C of 150% or more; inactive = T/C below 125%.

Test system: L1210 leukemia ip in BDF1 mice, survival T/C
Assay: NCI In Vivo Anticancer Drug Screen. Data for tumor model L1210 Leukemia (intraperitoneal) in B6D2F1 (BDF1) mice
Settings: higher = longer survival
Procedure, shortened: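 Value reflects the ratio of survival in compound-treated mice to survival in vehicle-treated controls, with both groups carrying the same transplanted tumor.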

[1] = endpoint: mean survival time, dose: 100.0 mg/kg/injection, schedule: Q01DX009 (ip), vehicle: Klucel (hydroxypropylcellulose) (HPC)
[2] = endpoint: mean survival time, dose: 200.0 mg/kg/injection, schedule: Q01DX009 (ip), vehicle: Klucel (hydroxypropylcellulose) (HPC)
[3] = endpoint: mean survival time, dose: 400.0 mg/kg/injection, schedule: Q01DX009 (ip), vehicle: Klucel (hydroxypropylcellulose) (HPC)
[4] = endpoint: mean survival time, dose: 100.0 mg/kg/injection, schedule: Q04DX003 (ip), vehicle: saline
[5] = endpoint: mean survival time, dose: 200.0 mg/kg/injection, schedule: Q04DX003 (ip), vehicle: saline
[6] = endpoint: mean survival time, dose: 400.0 mg/kg/injection, schedule: Q04DX003 (ip), vehicle: saline
[7] = endpoint: mean survival time, dose: 100.0 mg/kg/injection, schedule: Q04DX003 (ip), vehicle: Klucel (hydroxypropylcellulose) (HPC)
[8] = endpoint: mean survival time, dose: 200.0 mg/kg/injection, schedule: Q04DX003 (ip), vehicle: Klucel (hydroxypropylcellulose) (HPC)
[9] = endpoint: mean survival time, dose: 100.0 mg/kg/injection, schedule: Q04DX002 (ip), vehicle: Klucel (hydroxypropylcellulose) (HPC)
[10] = endpoint: mean survival time, dose: 100.0 mg/kg/injection, schedule: Q01DX001 (ip), vehicle: saline
[11] = endpoint: mean survival time, dose: 200.0 mg/kg/injection, schedule: Q01DX001 (ip), vehicle: saline
[12] = endpoint: mean survival time, dose: 400.0 mg/kg/injection, schedule: Q01DX001 (ip), vehicle: saline

Measured: T/C

COc1ccccc1-n1c(O)c(N=Nc2ccc(Br)cc2)c(=O)n(-c2ccc(Cl)cc2)c1=S
inactive: endpoint: mean survival time, dose: 100.0 mg/kg/injection, schedule: Q01DX001 (ip), vehicle: Klucel (hydroxypropylcellulose) (HPC) 101 % of control | endpoint: mean survival time, dose: 200.0 mg/kg/injection, schedule: Q01DX001 (ip), vehicle: Klucel (hydroxypropylcellulose) (HPC) 107 % of control

Cc1ccccc1NC(=S)N1CCOCC1
inactive: [1] 105 % of control | [2] 108 % of control | [3] 111 % of control

CCC1(CC)NC(=O)N(CCOS(C)(=O)=O)C1=O
inactive: endpoint: mean survival time, dose: 50.0 mg/kg/injection, schedule: Q04DX003 (ip), vehicle: saline 95 % of control | [4] 115 % of control | [5] 101 % of control | [6] 100 % of control

COc1ccc(NC(=O)Nc2cccc(O)c2)c(OC)c1
inactive: [1] 100 % of control | [2] 96 % of control | [3] 100 % of control

Clc1cc(Cl)nc(N2CC2)n1
inactive: endpoint: mean survival time, dose: 0.02 mg/kg/injection, schedule: Q01DX Z (ip), vehicle: methylcellulose (MC) 91 % of control | endpoint: mean survival time, dose: 6.25 mg/kg/injection, schedule: Q01DX009 (ip), vehicle: acetone 108 % of control | endpoint: mean survival time, dose: 12.5 mg/kg/injection, schedule: Q01DX009 (ip), vehicle: acetone 111 % of control | endpoint: mean survival time, dose: 12.5 mg/kg/injection, schedule: Q04DX003 (ip), vehicle: saline 98 % of control | endpoint: mean survival time, dose: 25.0 mg/kg/injection, schedule: Q04DX003 (ip), vehicle: saline 92 % of control

CC1(C)Cc2nc3ccccc3nc2-c2ccccc21
inactive: [4] 95 % of control | [5] 90 % of control | [6] 100 % of control

Nc1nc(N)c2cc(N3CCCC3c3ccc(Cl)cc3)ccc2n1 (configuration not stated)
inactive: endpoint: mean survival time, dose: 25.0 mg/kg/injection, schedule: Q01DX009 (ip), vehicle: water 87 % of control

CCC(CCC(C)C1CCC2C3CC=C4CC(OC5OC(CO)C(O)C(O)C5O)CCC4(C)C3CCC12C)C(C)C (configuration not stated)
inactive: endpoint: mean survival time, dose: 100.0 mg/kg/injection, schedule: Q01DX Z (ip), vehicle: Klucel (hydroxypropylcellulose) (HPC) 92 % of control | [7] 106 % of control | endpoint: mean survival time, dose: 200.0 mg/kg/injection, schedule: Q01DX Z (ip), vehicle: Klucel (hydroxypropylcellulose) (HPC) 91 % of control | [8] 104 % of control | endpoint: mean survival time, dose: 400.0 mg/kg/injection, schedule: Q01DX Z (ip), vehicle: Klucel (hydroxypropylcellulose) (HPC) 91 % of control | endpoint: mean survival time, dose: 400.0 mg/kg/injection, schedule: Q04DX003 (ip), vehicle: Klucel (hydroxypropylcellulose) (HPC) 90 % of control

CCCCCCCCCCCC[n+]1ccc2ccccc2c1
inactive: endpoint: mean survival time, dose: 0.05 mg/kg/injection, schedule: Q01DX001 (ip), vehicle: saline 97 % of control | endpoint: mean survival time, dose: 0.1 mg/kg/injection, schedule: Q01DX001 (ip), vehicle: saline 105 % of control | endpoint: mean survival time, dose: 0.2 mg/kg/injection, schedule: Q01DX001 (ip), vehicle: saline 100 % of control | endpoint: mean survival time, dose: 0.4 mg/kg/injection, schedule: Q01DX001 (ip), vehicle: saline 102 % of control | endpoint: mean survival time, dose: 0.5 mg/kg/injection, schedule: Q01DX001 (ip), vehicle: saline 106 % of control | endpoint: mean survival time, dose: 0.8 mg/kg/injection, schedule: Q01DX001 (ip), vehicle: saline 100 % of control | endpoint: mean survival time, dose: 1.0 mg/kg/injection, schedule: Q01DX001 (ip), vehicle: saline 104 % of control | endpoint: mean survival time, dose: 2.0 mg/kg/injection, schedule: Q01DX001 (ip), vehicle: carboxymethylcellulose (CMC) 109 % of control | endpoint: mean survival time, dose: 2.0 mg/kg/injection, schedule: Q01DX001 (ip), vehicle: saline 104 % of control | endpoint: mean survival time, dose: 4.0 mg/kg/injection, schedule: Q01DX001 (ip), vehicle: carboxymethylcellulose (CMC) 96 % of control and 97 % of control | endpoint: mean survival time, dose: 4.0 mg/kg/injection, schedule: Q01DX001 (ip), vehicle: saline 103 % of control | endpoint: mean survival time, dose: 8.0 mg/kg/injection, schedule: Q01DX001 (ip), vehicle: carboxymethylcellulose (CMC) 90 % of control and 91 % of control | endpoint: mean survival time, dose: 8.0 mg/kg/injection, schedule: Q01DX001 (ip), vehicle: saline 96 % of control | endpoint: mean survival time, dose: 16.0 mg/kg/injection, schedule: Q01DX001 (ip), vehicle: carboxymethylcellulose (CMC) 102 % of control | endpoint: mean survival time, dose: 8.0 micrograms/kg/injection, schedule: Q01DX015 (ip), vehicle: saline 88 % of control | endpoint: mean survival time, dose: 16.0 micrograms/kg/injection, schedule: Q01DX015 (ip), vehicle: saline 92 % of control | endpoint: mean survival time, dose: 32.0 micrograms/kg/injection, schedule: Q01DX015 (ip), vehicle: saline 96 % of control | endpoint: mean survival time, dose: 64.0 micrograms/kg/injection, schedule: Q01DX015 (ip), vehicle: saline 91 % of control

CN(C)NCCOC(c1ccccc1)c1ccccc1
inactive: endpoint: mean survival time, dose: 25.0 mg/kg/injection, schedule: Q04DX002 (ip), vehicle: Klucel (hydroxypropylcellulose) (HPC) 102 % of control | endpoint: mean survival time, dose: 50.0 mg/kg/injection, schedule: Q04DX002 (ip), vehicle: Klucel (hydroxypropylcellulose) (HPC) 106 % of control | [9] 95 % of control and 108 % of control

CCN(CC)C(=O)c1ccccc1
inactive: [4] 103 % of control | [5] 110 % of control | [6] 105 % of control

CCOC(=O)C(Cl)CCl (configuration not stated)
inactive: endpoint: mean survival time, dose: 50.0 mg/kg/injection, schedule: Q01DX009 (ip), vehicle: Klucel (hydroxypropylcellulose) (HPC) 97 % of control | [1] 100 % of control | [7] 108 % of control | [2] 104 % of control | [8] 97 % of control

Clc1ccc(C2=Nc3cccc4cccc(c34)N2)cc1Cl
inactive: endpoint: mean survival time, dose: 15.0 mg/kg/injection, schedule: Q01DX Z (ip), vehicle: saline 97 % of control | endpoint: mean survival time, dose: 30.0 mg/kg/injection, schedule: Q01DX Z (ip), vehicle: saline 105 % of control | endpoint: mean survival time, dose: 60.0 mg/kg/injection, schedule: Q01DX Z (ip), vehicle: saline 100 % of control | endpoint: mean survival time, dose: 60.0 mg/kg/injection, schedule: Q01DX Z (oral), vehicle: saline 91 % of control | endpoint: mean survival time, dose: 120.0 mg/kg/injection, schedule: Q01DX Z (oral), vehicle: saline 96 % of control | endpoint: mean survival time, dose: 240.0 mg/kg/injection, schedule: Q01DX Z (oral), vehicle: saline 94 % of control | endpoint: mean survival time, dose: 480.0 mg/kg/injection, schedule: Q01DX Z (oral), vehicle: saline 98 % of control

CC(=O)OC1CCCC2=C(C)C(=O)CCC21C (configuration not stated)
inactive: endpoint: mean survival time, dose: 50.0 mg/kg/injection, schedule: Q01DX009 (ip), vehicle: saline with Tween-80 100 % of control | endpoint: mean survival time, dose: 100.0 mg/kg/injection, schedule: Q01DX009 (ip), vehicle: saline with Tween-80 118 % of control | endpoint: mean survival time, dose: 200.0 mg/kg/injection, schedule: Q01DX009 (ip), vehicle: saline with Tween-80 94 % of control

CCOC(=O)C1C2CCC/C(=N\NS(=O)(=O)c3ccc(C)cc3)C21 (configuration not stated)
inactive: [9] 104 % of control | endpoint: mean survival time, dose: 200.0 mg/kg/injection, schedule: Q04DX002 (ip), vehicle: Klucel (hydroxypropylcellulose) (HPC) 100 % of control | endpoint: mean survival time, dose: 400.0 mg/kg/injection, schedule: Q04DX002 (ip), vehicle: Klucel (hydroxypropylcellulose) (HPC) 96 % of control

CC(=O)O[C@]1(C(C)=O)CC[C@H]2[C@@H]3C[C@H](C)C4=CC(=O)C=C[C@]4(C)[C@@]3(F)[C@@H](O)C[C@@]21C
inactive: endpoint: mean survival time, dose: 12.5 mg/kg/injection, schedule: Q01DX010 (sc), vehicle: steriod suspending solution 96 % of control and 98 % of control | endpoint: mean survival time, dose: 25.0 mg/kg/injection, schedule: Q01DX009 (sc), vehicle: steriod suspending solution 103 % of control and 104 % of control and 111 % of control | endpoint: mean survival time, dose: 25.0 mg/kg/injection, schedule: Q01DX010 (sc), vehicle: steriod suspending solution 98 % of control and 101 % of control | endpoint: mean survival time, dose: 50.0 mg/kg/injection, schedule: Q01DX009 (sc), vehicle: steriod suspending solution 93 % of control and 95 % of control and 111 % of control | endpoint: mean survival time, dose: 50.0 mg/kg/injection, schedule: Q01DX010 (sc), vehicle: steriod suspending solution 95 % of control and 107 % of control | endpoint: mean survival time, dose: 100.0 mg/kg/injection, schedule: Q01DX009 (sc), vehicle: steriod suspending solution 98 % of control (2×) and 111 % of control | endpoint: mean survival time, dose: 100.0 mg/kg/injection, schedule: Q01DX010 (sc), vehicle: steriod suspending solution 98 % of control and 107 % of control | endpoint: mean survival time, dose: 200.0 mg/kg/injection, schedule: Q01DX009 (sc), vehicle: steriod suspending solution 95 % of control (2×) and 111 % of control | endpoint: median survival time, dose: 25.0 mg/kg/injection, schedule: Q01DX009 (sc), vehicle: steriod suspending solution 106 % of control | endpoint: median survival time, dose: 50.0 mg/kg/injection, schedule: Q01DX009 (sc), vehicle: steriod suspending solution 100 % of control | endpoint: median survival time, dose: 100.0 mg/kg/injection, schedule: Q01DX009 (sc), vehicle: steriod suspending solution 100 % of control | endpoint: median survival time, dose: 200.0 mg/kg/injection, schedule: Q01DX009 (sc), vehicle: steriod suspending solution 100 % of control

Cn1nc(C#N)c2c(N)ncnc21
inactive: [10] 104 % of control | [11] 104 % of control | [12] 101 % of control

OC1/C=C\CCCCC1 (configuration not stated)
inactive: [10] 98 % of control | [11] 93 % of control | [12] 98 % of control
